Data reported in patent publication US20140335172A1, “OPHTHALMOLOGICAL RINSING AGENT AND METHODS THEREFOF” (priority 2013, published 2014).

system: rMC-1 cells; experiment: MTS cell viability, rMC-1, 1 hr incubation; type: cell-based; conditions: rMC-1 Müller cells, n=3
From the text: The innermost cell layer of the retina is called the retinal ganglion cell layer. It consists mainly of retinal ganglion cells, with some Müller cells and also some blood capillaries. This cell layer is located closest to the vitreous anatomically and thus is almost in direct contact with the rinsing agent in this study. Therefore, a retinal ganglion cell line (RGC-5) and a rat Müller cell line were used in this in-vitro cell culture study to evaluate the biocompatibility of the rinsing agent in accordance with at least one embodiment of this application.

For `CCCCCCCCC(F)(F)C(F)(F)C(F)(F)C(F)(F)C(F)(F)C(F)(F)F` [F6H8], the “cell viability relative to HBSS, MTS assay” value was “significant decrease in cell viability”.

system: RGC-5; experiment: not given; conditions: RGC-5, 30 minutes; n=3; listed as 0.65 mPa·s SO
Protocol: In the study, CellTiter 96® AQueous non-radioactive cell proliferation assay (MTS) and Cytotoxicity Detection Kit (LDH assay) were used to test for the cell viability and cell death of the RGC-5 and rMC-1 cells after incubation with the rinsing agent (FIG. 17). The major component of the rinsing agent is octamethyltrisiloxane (1.0 cSt Silicone Oil [SO]) with hydrophobic surfactant DC749 (Dow Corning). Rinsing agents with different concentration of DC749 (0%, 5%, 10% in vol.) were included. The incubation time was designed as 1 hr because the proposed use of the rinsing agent would not be longer than 15 mins in-vivo and therefore a 1 hr study would be more than sufficient in deciding the effect of the proposed rinsing agent on the cells in the eye cavity. Hank's Balanced salt solution (HBSS) was used as the experimental control. Two liquids, perfluorodecalin (PFD) and F6H8, were also included in this study. PFD is a widely accepted short-term used intraoperative adjunct for flattening the folded retina during retinal surgery. F6H8 is a key component of Heavy Silicone Oil (HSO), which has been used as a long-term intraocular tamponade.
In a study similar to 6.4 above, the cell viability and the percentage cell death of RGC-5 were investigated in a 30-minute experiment.

With `C[Si](C)(C)O[Si](C)(C)C` [Hexamethyldisiloxane] the “cell viability relative to HBSS, MTS assay” value was “significant decrease of cell viability”.

same assay, conditions: RGC-5, 30 minutes; n=3; listed as LMW-SO 0.65 mPa·s

With `C[Si](C)(C)O[Si](C)(C)C` [Hexamethyldisiloxane] the “cell viability relative to HBSS, MTS assay” value was “reducing the metabolism”.

system: not listed separately; experiment: Relative cell toxicity ranking of oil solvents; type: cell-based; set-up: key: 1 = most efficient/toxic/proliferative/volatile; conditions: relative rank, 1 = most toxic

Point of comparison: `FC(F)(F)C(F)(F)C(F)(F)C(F)(F)C(F)(F)C(F)(F)C(F)(F)C(F)(F)Br` [PFOB], Cell toxicity 1. Against it:
- CCCCCCCCC(F)(F)C(F)(F)C(F)(F)C(F)(F)C(F)(F)C(F)(F)F [F6H8] — higher, 2

system: not listed separately; experiment: Relative cell proliferation ranking of oil solvents; type: cell-based; conditions: relative rank, 1 = most proliferative

Point of comparison: `FC(F)(F)C(F)(F)C(F)(F)C(F)(F)C(F)(F)C(F)(F)C(F)(F)C(F)(F)Br` [PFOB], Cell proliferation 3. Against it:
- CCCCCCCCC(F)(F)C(F)(F)C(F)(F)C(F)(F)C(F)(F)C(F)(F)F [F6H8] — lower, 2

system: not given; experiment: not given; conditions: Table 3; cited from earlier work

Point of comparison: `C[Si](C)(C)O[Si](C)(C)O[Si](C)(C)C` [Octamethyltrisiloxane], “Surface Tension (mN/m)” value 17.4 mN/m. Against it:
- CCCCCC(F)(F)C(F)(F)C(F)(F)C(F)(F)F [F4H5] — higher, 17.43 mN/m
- CCCCCCC(F)(F)C(F)(F)C(F)(F)C(F)(F)C(F)(F)C(F)(F)F [F6H6] — higher, 20.0 mN/m
- CCCCCCCCC(F)(F)C(F)(F)C(F)(F)C(F)(F)C(F)(F)C(F)(F)F [F6H8] — higher, 19.65 mN/m
- CCCCCCCCCCCCC(F)(F)C(F)(F)C(F)(F)C(F)(F)C(F)(F)C(F)(F)F [F6H12] — higher, 21.1 mN/m
- O [H2O] — higher, 72 mN/m
- C[Si](C)(C)O[Si](C)(C)C [Hexamethyldisiloxane] — lower, 15.9 mN/m
- FC(F)(F)C(F)(F)C(F)(F)C(F)(F)C(F)(F)C(F)(F)C(F)(F)C(F)(F)Br [PFOB] — higher, 18 mN/m

same assay, conditions: silicone oil grade given by kinematic viscosity, cSt; cited from earlier work

Point of comparison: `C[Si](C)(C)O[Si](C)(C)O[Si](C)(C)C` [Octamethyltrisiloxane], “Surface Tension (mN/m)” value 17.4 mN/m. Against it:
- C[Si](C)(C)O[Si](C)(C)C [Hexamethyldisiloxane] — lower, 15.9 mN/m

system: not given; experiment: not given; conditions: 20° C.; Table 3; cited from earlier work

For `C[Si](C)(C)O[Si](C)(C)C` [Hexamethyldisiloxane], the “Density” value is given as 0.764 g/mL.

same assay, conditions: at 25° C.; Table 3; cited from earlier work

Point of comparison: `CCCCCCCCC(F)(F)C(F)(F)C(F)(F)C(F)(F)C(F)(F)C(F)(F)F` [F6H8], “Density (g/cm^3) at 25° C.” value 1.331 g/mL. Against it:
- CCCCCC(F)(F)C(F)(F)C(F)(F)C(F)(F)F [F4H5] — within 1.5-fold, 1.284 g/mL
- CCCCCCC(F)(F)C(F)(F)C(F)(F)C(F)(F)C(F)(F)C(F)(F)F [F6H6] — within 1.5-fold, 1.386 g/mL
- CCCCCCCCCCCCC(F)(F)C(F)(F)C(F)(F)C(F)(F)C(F)(F)C(F)(F)F [F6H12] — within 1.5-fold, 1.25 g/mL
- O [H2O] — within 1.5-fold, 0.970 g/mL
- C[Si](C)(C)O[Si](C)(C)O[Si](C)(C)C [Octamethyltrisiloxane] — 1.6-fold lower, 0.818 g/mL
- FC(F)(F)C(F)(F)C(F)(F)C(F)(F)C(F)(F)C(F)(F)C(F)(F)C(F)(F)Br [PFOB] — within 1.5-fold, 1.930 g/mL

same assay, conditions: at 25 ° C.; Table 4 surfactants; cited from earlier work

Point of comparison: `C[Si]1(C)O[Si](C)(C)O[Si](C)(C)O[Si](C)(C)O[Si](C)(C)O1` [Decamethylcyclopentasiloxane], “Density (g/cm^3) at 25° C.” value 0.954 g/mL. Against it:
- C[Si]1(C)O[Si](C)(C)O[Si](C)(C)O[Si](C)(C)O[Si](C)(C)O[Si](C)(C)O1 [Dodecamethylcyclobexasiloxane] — within 1.5-fold, 0.963 g/mL
- C[Si]1(C)O[Si](C)(C)O[Si](C)(C)O[Si](C)(C)O1 [Octamethylcyclotetrasiloxane] — within 1.5-fold, 0.95 g/mL

same assay, conditions: at 25° C.; silicone oil grade given by kinematic viscosity, cSt; cited from earlier work

Point of comparison: `C[Si](C)(C)O[Si](C)(C)O[Si](C)(C)C` [Octamethyltrisiloxane], “Specific Gravity, at 25° C.” value 0.816. Against it:
- C[Si](C)(C)O[Si](C)(C)C [Hexamethyldisiloxane] — lower, 0.760

system: not listed separately; experiment: Relative efficacy ranking of oil solvents; conditions: relative rank, 1 = most efficient

Point of comparison: `CCCCCC(F)(F)C(F)(F)C(F)(F)C(F)(F)F` [F4H5], Efficacy 2. Against it:
- CCCCCCCCC(F)(F)C(F)(F)C(F)(F)C(F)(F)C(F)(F)C(F)(F)F [F6H8] — higher, 3
- FC(F)(F)C(F)(F)C(F)(F)C(F)(F)C(F)(F)C(F)(F)C(F)(F)C(F)(F)Br [PFOB] — higher, 3

system: not given; experiment: not given; conditions: Table 2; cited from earlier work

Point of comparison: `FC(F)(F)C(F)(F)C(F)(F)C(F)(F)C(F)(F)C(F)(F)C(F)(F)C(F)(F)Br` [PFOB], “Kinematic Viscosity (Sticky**)” value 1.93 cSt. Against it:
- CCCCCC(F)(F)C(F)(F)C(F)(F)C(F)(F)F [F4H5] — lower, 1.05 cSt
- CCCCCCCCC(F)(F)C(F)(F)C(F)(F)C(F)(F)C(F)(F)C(F)(F)F [F6H8] — higher, 3.44 cSt

same assay, conditions: at 25° C.; cited from earlier work

Point of comparison: `CCCCCCC(F)(F)C(F)(F)C(F)(F)C(F)(F)C(F)(F)C(F)(F)F` [F6H6], “Dynamic Viscosity (mPa · s) at 25° C.” value 2.38 mPa · s. Against it:
- CCCCCC(F)(F)C(F)(F)C(F)(F)C(F)(F)F [F4H5] — lower, 1.05 mPa · s
- CCCCCCCCC(F)(F)C(F)(F)C(F)(F)C(F)(F)C(F)(F)C(F)(F)F [F6H8] — higher, 3.44 mPa · s
- CCCCCCCCCCCCC(F)(F)C(F)(F)C(F)(F)C(F)(F)C(F)(F)C(F)(F)F [F6H12] — higher, 6.99 mPa · s
- O [H2O] — lower, 0.89 mPa · s
- C[Si](C)(C)O[Si](C)(C)C [Hexamethyldisiloxane] — lower, 0.65 mPa · s
- C[Si](C)(C)O[Si](C)(C)O[Si](C)(C)C [Octamethyltrisiloxane] — lower, 1.0 mPa · s
- FC(F)(F)C(F)(F)C(F)(F)C(F)(F)C(F)(F)C(F)(F)C(F)(F)C(F)(F)Br [PFOB] — lower, 1.93 mPa · s

system: not given; experiment: not given; conditions: cited from earlier work

For `C[Si]1(C)O[Si](C)(C)O[Si](C)(C)O[Si](C)(C)O[Si](C)(C)O1` [Decamethylcyclopentasiloxane], the “Henry's Law Constant, Pa m^3/mol at 25° C.” value (from here on “Henry's Law Constant”) is listed as 3,342,000 Pa m^3/mol.
In the case of `C[Si]1(C)O[Si](C)(C)O[Si](C)(C)O[Si](C)(C)O[Si](C)(C)O[Si](C)(C)O1` [Dodecamethylcyclobexasiloxane], the “Henry's Law Constant” value is listed as 14,667 Pa m^3/mol.
For `C[Si]1(C)O[Si](C)(C)O[Si](C)(C)O[Si](C)(C)O1` [Octamethylcyclotetrasiloxane], the “Henry's Law Constant” value is listed as 1,214,000 Pa m^3/mol.

system: not given; experiment: not given; conditions: 25° C.; cited from earlier work

For `CCCCCCC(F)(F)C(F)(F)C(F)(F)C(F)(F)C(F)(F)C(F)(F)F` [F6H6], the “Vapor Pressure (Torr)” value is given as <1 (25° C.) Torr.
In the case of `CCCCCCCCC(F)(F)C(F)(F)C(F)(F)C(F)(F)C(F)(F)C(F)(F)F` [F6H8], the “Vapor Pressure (Torr)” value is given as <1 (25° C.) Torr.
In the case of `C[Si](C)(C)O[Si](C)(C)O[Si](C)(C)C` [Octamethyltrisiloxane], the “Vapor Pressure (Torr)” value is given as 4 (25° C.) Torr.

same assay, conditions: 37° C.; cited from earlier work

In the case of `CCCCCC(F)(F)C(F)(F)C(F)(F)C(F)(F)F` [F4H5], the “Vapor Pressure (Torr)” value is listed as 25.1 (37° C.) Torr.
For `O` [H2O], the “Vapor Pressure (Torr)” value is given as 46.9 (37° C.) Torr.
For `C[Si](C)(C)O[Si](C)(C)C` [Hexamethyldisiloxane], the “Vapor Pressure (Torr)” value is given as 42.2 (37° C.) Torr.
In the case of `FC(F)(F)C(F)(F)C(F)(F)C(F)(F)C(F)(F)C(F)(F)C(F)(F)C(F)(F)Br` [PFOB], the “Vapor Pressure (Torr)” value is given as 10.5 (37° C.) Torr.

same assay, conditions: at 25° C.; cited from earlier work

Point of comparison: `C[Si]1(C)O[Si](C)(C)O[Si](C)(C)O[Si](C)(C)O[Si](C)(C)O1` [Decamethylcyclopentasiloxane], “Vapor Pressure, Pa at 25° C.” value 33.2 Pa. Against it:
- C[Si]1(C)O[Si](C)(C)O[Si](C)(C)O[Si](C)(C)O[Si](C)(C)O[Si](C)(C)O1 [Dodecamethylcyclobexasiloxane] — lower, 4.6 Pa
- C[Si]1(C)O[Si](C)(C)O[Si](C)(C)O[Si](C)(C)O1 [Octamethylcyclotetrasiloxane] — higher, 132 Pa

system: not listed separately; experiment: Relative volatility ranking of oil solvents; type: physicochemical; conditions: relative rank, 1 = most volatile

Point of comparison: `CCCCCCCCC(F)(F)C(F)(F)C(F)(F)C(F)(F)C(F)(F)C(F)(F)F` [F6H8], Volatility 3. Against it:
- CCCCCC(F)(F)C(F)(F)C(F)(F)C(F)(F)F [F4H5] — lower, 2
- FC(F)(F)C(F)(F)C(F)(F)C(F)(F)C(F)(F)C(F)(F)C(F)(F)C(F)(F)Br [PFOB] — higher, 4
